Measured values as given in publication PMC9147323, “Phytochemical content, especially spermidine derivatives, presenting antioxidant and antilipoxygenase activities in Thai bee pollens” (PeerJ, 2022).
Several values for one entry are separate records, joined by “and”; a condition that tells them apart may be missing. Equal entries are not always repeated. Marks after values point to notes of the source that are not given here.

How the values were obtained:
[1] = DPPH free radical scavenging activity assay; conditions: mean ± 1 SD
Description: The potential of the partitioned extracts was determined as previously described ([Khongkarat et al., 2020]). Five different concentrations of each sample were prepared in DMSO. […] The absorbance was measured at a wavelength of 517 nm ([…]) using a microplate reader. Ascorbic acid (vitamin C) was used as the standard reference. Each assay was performed in triplicate. The free radical scavenging activity was calculated from Eq. (1): (1) % DPPH radical scavenging activity=A-B/A×100, where A is the […] the negative control and B is the […] of the treatment.

[2] = ABTS radical scavenging activity / Trolox equivalent antioxidant capacity (TEAC); conditions: for ABTS EC50: mean ± 1 SD; for ABTS (µmol TE/g): fractions after SiG60-CC and HPLC, mean ± 1SD
[3] = Ferric reducing antioxidant power (FRAP); conditions: fractions after SiG60-CC and HPLC; mean ± 1SD
Description: The FRAP assay was performed as previously described ([Sun et al., 2017]). The FRAP reagent was freshly prepared by mixing 100 mL of 300 mM acetate buffer (pH 3.6), 10 mL of 10 mM 2,4,6-tris(2pyridyl)-s-triazine solution in 40 mM hydrochloric acid, and 10 mL of 20 mM ferric chloride solution. Later, 100 µL of the sample at a desired concentration was added to three mL of the FRAP reagent and incubated at 37 °C in a water bath for 6 min. The absorbance was measured at a wavelength of 593 nm. Aqueous solutions of ferrous sulfate (0–2,000 µM) were used to establish the standard graph and the reducing capacity was expressed as µmole of Fe^2+/g extract. Each assay was performed in triplicate.

[4] = biological target: T1, LOX from soybean (Glycine max, UniProt P08170); assay: In vitro LOXI activity; conditions: mean ± 1 SD
T1 sequence (P08170 1-839): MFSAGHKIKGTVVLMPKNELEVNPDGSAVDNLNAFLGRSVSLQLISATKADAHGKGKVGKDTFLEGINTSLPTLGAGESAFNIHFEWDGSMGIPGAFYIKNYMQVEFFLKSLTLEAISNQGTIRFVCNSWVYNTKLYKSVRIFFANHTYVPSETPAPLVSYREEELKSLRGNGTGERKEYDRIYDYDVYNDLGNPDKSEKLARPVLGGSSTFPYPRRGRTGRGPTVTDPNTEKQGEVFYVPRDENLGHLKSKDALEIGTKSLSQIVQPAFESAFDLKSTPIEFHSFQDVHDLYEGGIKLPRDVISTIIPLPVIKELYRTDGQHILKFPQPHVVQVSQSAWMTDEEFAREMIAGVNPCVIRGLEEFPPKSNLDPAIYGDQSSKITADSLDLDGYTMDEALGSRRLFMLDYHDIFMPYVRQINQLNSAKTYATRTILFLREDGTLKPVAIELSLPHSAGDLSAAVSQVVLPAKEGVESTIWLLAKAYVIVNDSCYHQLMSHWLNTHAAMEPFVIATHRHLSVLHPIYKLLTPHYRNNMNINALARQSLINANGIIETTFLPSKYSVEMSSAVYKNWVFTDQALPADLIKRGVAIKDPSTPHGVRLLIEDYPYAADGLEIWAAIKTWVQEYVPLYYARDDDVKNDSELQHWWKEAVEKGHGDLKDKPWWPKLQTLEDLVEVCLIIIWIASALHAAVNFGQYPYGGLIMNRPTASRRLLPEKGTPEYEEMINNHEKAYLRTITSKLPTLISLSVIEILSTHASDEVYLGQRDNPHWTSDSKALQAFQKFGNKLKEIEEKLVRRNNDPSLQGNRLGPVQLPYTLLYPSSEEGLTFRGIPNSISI

DPPH EC50 ([1]; listed as ascorbic acid)	ABTS EC50 ([2]; listed as ascorbic acid)	SMILES	DPPH EC50 [1]	ABTS EC50 [2]	FRAP (µmol Fe^2+/g) [3]	LOXI IC50 [4]	ABTS (µmol TE/g) [2]
68.00 ± 1.13 µg/mL	44.54 ± 0.19 µg/mL	O=C1O[C@H]([C@@H](O)CO)C(O)=C1O [Ascorbic acid, reference compound]	68.00 ± 1.13^a µg/mL and 68.00 ± 1.13^b µg/mL	44.54 ± 0.19^a µg/mL and 44.54 ± 0.19^c µg/mL and 44.54 ± 0.19^b µg/mL			
		COc1cc(/C=C/C(=O)NCCCCN(CCCNC(=O)/C=C/c2ccc(O)c(OC)c2)C(=O)/C=C/c2ccc(O)c(OC)c2)ccc1O [DCMMBP3-2, N^1, N^5, N^10-tri-(E, E, E)-feruloyl spermidine]	57.7 ± 2.77^a µg/mL	28.29 ± 1.05^b µg/mL	3,091.78 ± 44.48^b µmol Fe^2+/g	11.57 ± 0.93^a µg/mL	2,339.16 ± 34.62^b µmol TE/g
		COc1cc(C=CC(=O)NCCCCN(CCCNC(=O)C=Cc2ccc(O)c(OC)c2)C(=O)C=Cc2ccc(O)c(OC)c2)ccc1O [DCMMBP3-1, N^1, N^5, N^10-triferuloyl spermidine]	53.05 ± 2.60^a µg/mL	25.38 ± 0.67^a µg/mL	3,477.33 ± 52.07^a µmol Fe^2+/g	11.31 ± 0.46^a µg/mL	2,527.63 ± 7.99^a µmol TE/g
